Experiments:
Type in all cases: functional, cell-based
[1] = Antiproliferative activity against human EC9706 cells after 48 hrs by MTT assay; settings: EC9706, 48 h
MGC-803 = test: Antiproliferative activity against human MGC803 cells after 48 hrs by MTT assay; settings: MGC-803, 48 h
MCF7 = test: Antiproliferative activity against human MCF7 cells after 48 hrs by MTT assay; settings: MCF7, 48 h

What does the source list for `CCCCCCCCn1cc(COC[C@@H]2OC[C@H](N)[C@H]2O)nn1`?
IC50 [1]: > 128 µM; IC50 (MGC-803): > 128 µM; IC50 (MCF7): > 128 µM

With `CCCCCCCCCn1cc(COC[C@@H]2OC[C@H](N)[C@H]2O)nn1` as the compound, how does the IC50 [1] read?
Its IC50 is over 128 µM.

And the IC50 (MGC-803)?
Its IC50 is over 128 µM.

What about the IC50 (MCF7) of the same compound?
The IC50 was over 128 µM.

For `CCCCCCCCCCn1cc(COC[C@@H]2OC[C@H](N)[C@H]2O)nn1`, which IC50 [1] is on record?
Its IC50 is 43.1 µM.

And the IC50 (MGC-803)?
The IC50 was 57.4 µM.

What about the IC50 (MCF7) of the same compound?
The IC50 was 45 µM.

What does the source list for `CCCCCCCCCCCCn1cc(COC[C@@H]2OC[C@H](N)[C@H]2O)nn1`?
IC50 [1]: 93.8 µM; IC50 (MGC-803): 115 µM; IC50 (MCF7): 2.62 µM

Reference: ChEMBL document CHEMBL3259703, “Synthesis and preliminary biological evaluation of 1,2,3-triazole-Jaspine B hybrids as potential cytotoxic agents” (Eur J Med Chem, 2014)
